Patent publication US20250296914A1, “ANTIVIRAL COMPOUNDS AND COMPOSITIONS THEREFROM” (CONSEJO SUPERIOR DE INVESTIGACIONES CIENTÍFICAS, priority 2022, published 2025)

Legend:
[1] = test system: SARS-CoV-2 stock strain NL/2020; test: Protective effect against virus-induced cytopathic effect (crystal violet staining of Vero-E6 monolayer); assay type: cell-based; details: Severe acute respiratory syndrome coronavirus 2, Vero C1008, 72 h, Vero-E6, SARS-CoV-2 MOI 0.001, 72 h
[2] = in vitro; details: human
[3] = test system: SARS-CoV-2 stock strain NL/2020; test: Intracellular viral antigen (N protein) accumulation by immunofluorescence, A549-ACE2; assay type: cell-based; details: Severe acute respiratory syndrome coronavirus 2; A549-ACE2, MOI 0.005, viral antigen staining, 48 h
[4] = test system: SARS-CoV-2 stock strain NL/2020; test: Intracellular viral antigen (N protein) accumulation by immunofluorescence, Vero-E6; assay type: cell-based; details: Severe acute respiratory syndrome coronavirus 2, Vero C1008; Vero-E6, MOI 0.005, viral antigen staining, 24 h
[5] = in vitro; details: human; remark: listed apart in the source
[6] = test system: VSV-GFP virus; assay type: cell-based, Vesicular Stomatitis Virus
[7] = test system: WNV-GFP virus; assay type: cell-based, West Nile Virus; details: Huh-7, MOI 0.01, 48 h, FIG. 2
[8] = test system: hCoV-229E-GFP virus; assay type: cell-based, Human coronavirus 229E
[9] = test system: SARS-CoV-2 stock strain NL/2020; test: Intracellular viral antigen (N protein) accumulation by immunofluorescence, Calu3; assay type: cell-based; details: Severe acute respiratory syndrome coronavirus 2; Calu-3, MOI 0.005, viral antigen staining, 48 h
[10] = in vitro; details: African green monkey

COC(=O)c1cc(-c2ccc(N3CCOCC3)cc2)ccc1NC(C#N)[C@H](Cc1c[nH]c2ccccc12)NC(=O)OC(C)(C)C (stereo partly drawn) [(Ia), methyl 4-(((2S)-2-((tert-butoxycarbonyl)amino)-1-cyano-3-(1H-indol-3-yl)propyl)-amino)-4′-morpholino-[1,1′-biphenyl]-3-carboxylate]
minimal effective concentration ([1]; 50 to 0.78 μM tested, read-out: PC MIN (lowest protective concentration)): 0.78 µM
EC50 ([1]; lowest fully protecting concentration averaged with next lower dilution, read-out: ESTIMATED EC50): 580 nM
CC50 at 48 h [2]: > 50000 nM
EC50 [3]: 1000 nM
EC90 [3]: 1800 nM
EC50 [4]: 300 nM
EC90 [4]: 500 nM
CC50 at 48 h [5]: > 50000 nM
Prevention of infection by Vesicular Stomatitis Virus (GFP expression, in words) [6]: not being suitable for preventing the infection
Prevention of infection by West Nile Virus (GFP expression, in words) [7]: not being suitable for preventing the infection
Prevention of infection with 229E-GFP (GFP expression, in words) [8]: suitable for preventing efficiently the infection
EC50 [9]: 200 nM
EC90 [9]: 2000 nM
CC50 at 48 h [10]: > 50000 nM
